In ChEMBL document CHEMBL5143734, “Seco-Lupane Triterpene Derivatives Induce Ferroptosis through GPX4/ACSL4 Axis and Target Cyclin D1 to Block the Cell Cycle” (J Med Chem, 2022):
The source made the active and inactive calls. The calls are words filed in the database; no cut-off is given here.

Legend:
[1] = system: HepG2; assay: Antiproliferative activity against human HepG2 cells assessed as inhibition of clone formation pretreated for 48 hrs followed by replacement with drug free medium every 3 days for 10 days by crystalline violet staining based assay; assay type: functional, cell-based; settings: dose 0.5-2 µM, DDE = dose-dependent effect
[2] = system: HepG2; assay: Cytotoxicity against human HepG2 cells assessed as reduction in cell viability incubated for 48 hrs by CCK-8 assay; assay type: functional, cell-based; settings: dose 0.78125-50 µM, DDE = dose-dependent effect
[3] = system: MCF7; assay: Cytotoxicity against human MCF7 cells assessed as reduction in cell viability by CCK-8 assay; assay type: functional, cell-based
[4] = system: A549; assay: Cytotoxicity against human A549 cells assessed as reduction in cell viability by CCK-8 assay; assay type: functional, cell-based
[5] = system: HepG2; assay: Cytotoxicity against human HepG2 cells assessed as reduction in cell viability by CCK-8 assay; assay type: functional, cell-based
[6] = system: PC-3M; assay: Cytotoxicity against human PC-3M cells assessed as reduction in cell viability by CCK-8 assay; assay type: functional, cell-based
[7] = system: PANC-1; assay: Cytotoxicity against human PANC-1 cells assessed as reduction in cell viability by CCK-8 assay; assay type: functional, cell-based
[8] = system: HepG2; assay: Antiinvasive activity in human HepG2 cells assessed as inhibition of cell invasion measured after 24 hrs by crystal violet staining based transwell assay; assay type: functional; settings: dose 0.125-0.5 µM, DDE = dose-dependent effect
[9] = system: HepG2; assay: Antimigratory activity against human HepG2 cells assessed as reduction in cell migration measured after 24 hrs by crystal violet staining based transwell assay; assay type: functional; settings: dose 0.125-0.5 µM, DDE = dose-dependent effect
[10] = system: HepG2; assay: Antiproliferative activity against human HepG2 cells at 0.125 to 0.5 uM incubated for 48 hrs; assay type: functional, cell-based; settings: dose 0.125-0.5 µM
[11] = system: HepG2; assay: Induction of ferroptosis in human HepG2 cells assessed as increase in ACSL4 mRNA expression measured after 6 to 36 hrs by qRT-PCR analysis; assay type: functional, cell-based; settings: dose 0.25-1 µM, time 6-36 hrs, DDE = dose-dependent effect
[12] = system: HepG2; assay: Induction of ferroptosis in human HepG2 cells assessed as log2 fold decrease in GPX4 mRNA expression by qRT-PCR analysis; assay type: functional
[13] = system: HepG2; assay: Induction of ferroptosis in human HepG2 cells assessed as log2 fold increase in ACSL4 mRNA expression by qRT-PCR analysis; assay type: functional
[14] = system: HepG2; assay: Induction of ferroptosis in human HepG2 cells assessed as increase in ACSL4 protein expression at 2 uM by Western blot analysis; assay type: functional, cell-based; settings: time 6-36 hrs, TDE = time-dependent effect
[15] = system: HepG2; assay: Induction of ferroptosis in human HepG2 cells assessed as decrease in GPX4 protein expression at 2 uM measured after 6 hrs by Western blot analysis; assay type: functional, cell-based
[16] = system: HepG2; assay: Induction of ferroptosis in human HepG2 cells assessed as increase in intracellular ROS level at 2 uM incubated for 48 hrs by DCFH-DA staining based flow cytometry analysis; assay type: functional
[17] = system: HepG2; assay: Induction of ferroptosis in human HepG2 cells assessed as increase in intracellular ROS level incubated for 48 hrs by DCFH-DA staining based flow cytometry analysis; assay type: functional, cell-based; settings: dose 0.25-1 µM, DDE = dose-dependent effect
[18] = system: HepG2; assay: Induction of ferroptosis in human HepG2 cells assessed as increased in Fe2+ level incubated for 36 hrs; assay type: functional, cell-based; settings: dose 0.5-2 µM, DDE = dose-dependent effect
[19] = system: HepG2; assay: Induction of ferroptosis in human HepG2 cells assessed as increased in MDA level incubated for 36 hrs; assay type: functional, cell-based; settings: dose 0.5-2 µM, DDE = dose-dependent effect
[20] = system: HepG2; assay: Induction of ferroptosis in human HepG2 cells assessed as decreased in GSH level incubated for 36 hrs; assay type: functional, cell-based; settings: dose 0.5-2 µM, DDE = dose-dependent effect
[21] = system: HepG2; assay: Downregulation of Cyclin A2 mRNA expression in human HepG2 cells assessed as fragments per kilo base of exon per million mapped fragments by RT-qPCR analysis (reference value: 37.48 to 47.03); assay type: functional
[22] = Upregulation of Cyclin E1 mRNA expression in human HepG2 cells assessed as fragments per kilo base of exon per million mapped fragments […] (reference value: 11.43 to 14.86); assay type: functional
[23] = system: HepG2; assay: Downregulation of Cyclin D1 protein expression in human HepG2 cells measured at 2 uM by Western blot analysis; assay type: functional, cell-based; settings: time 6-36 hrs, TDE = time-dependent effect
[24] = molecular target: G1/S-specific cyclin-D1 (Homo sapiens) (UniProt P24385); assay: Binding affinity to Cyclin D1 in human HepG2 cells by laser confocal microscopy; assay type: cell-based
Chain of G1/S-specific cyclin-D1 (Homo sapiens) (P24385 whole entry): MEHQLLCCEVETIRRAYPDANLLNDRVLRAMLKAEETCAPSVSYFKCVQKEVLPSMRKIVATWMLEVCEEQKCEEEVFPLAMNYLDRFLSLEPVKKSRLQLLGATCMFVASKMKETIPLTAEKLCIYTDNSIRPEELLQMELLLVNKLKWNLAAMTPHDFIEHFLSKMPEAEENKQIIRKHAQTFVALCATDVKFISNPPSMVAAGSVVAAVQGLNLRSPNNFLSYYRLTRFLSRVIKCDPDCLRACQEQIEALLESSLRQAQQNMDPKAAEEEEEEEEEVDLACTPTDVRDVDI

[25] = system: HepG2; assay: Inhibition of Cyclin D1 in human HepG2 cells assessed as reduction in CDK6 expression by Western blot analysis; assay type: cell-based; settings: dose 0.5-2 µM, DDE = dose-dependent effect
[26] = system: HepG2; assay: Inhibition of Cyclin D1 in human HepG2 cells assessed as reduction in E2F expression by Western blot analysis; assay type: cell-based; settings: dose 0.5-2 µM, DDE = dose-dependent effect
[27] = system: HepG2; assay: Inhibition of Cyclin D1 in human HepG2 cells assessed as reduction in Rb phosphorylation by Western blot analysis; assay type: cell-based; settings: dose 0.5-2 µM, DDE = dose-dependent effect
[28] = system: HepG2; assay: Cytotoxicity against human HepG2 cells assessed as reduction in cell viability at 5 to 100 uM relative to control; assay type: functional; settings: dose 5-100 µM
[29] = system: HepG2; assay: Cytotoxicity against human HepG2 cells assessed as reduction in cell viability at 10 uM relative to control; assay type: functional
[30] = system: HepG2; assay: Induction of ferroptosis in human HepG2 cells assessed as downregulation of GPX4 mRNA expression by measuring fragments per kilo base of exon per million mapped fragments by qRT-PCR analysis (reference value: 298.18 to 302.30); assay type: functional
[31] = system: HepG2; assay: Cytotoxicity against human HepG2 cells assessed as reduction in cell viability at 1.5625 uM incubated for 48 hrs by CCK-8 assay relative to control; assay type: functional
[32] = system: HepG2; assay: Cytotoxicity against human HepG2 cells assessed as reduction in cell viability at 50 uM incubated for 48 hrs by CCK-8 assay; assay type: functional, cell-based
[33] = system: HepG2; assay: Antiproliferative activity against human HepG2 cells incubated for 24 to 48 hrs by Edu staining based fluorescence microscopy assay; assay type: functional, cell-based; settings: dose 0.125-2 µM, time 24-48 hrs, DDE = dose-dependent effect
[34] = system: HepG2; assay: Antiproliferative activity against human HepG2 cells at 0.125 to 2 uM by Edu staining based fluorescence microscopy assay; assay type: functional, cell-based; settings: dose 0.125-2 µM, time 24-48 hrs, TDE = time-dependent effect
[35] = system: HepG2; assay: Induction of ferroptosis in human HepG2 cells assessed as upregulation of ACSL4 mRNA expression at 0.25 to 1 uM by qRT-PCR analysis; assay type: functional, cell-based; settings: dose 0.25-1 µM, time 24-48 hrs, TDE = time-dependent effect
[36] = system: HepG2; assay: Induction of ferroptosis in human HepG2 cells assessed as increase in intracellular ROS level incubated for 48 hrs by DCFH-DA staining based fluorescence microscopic analysis; assay type: functional, cell-based; settings: dose 0.25-1 µM, DDE = dose-dependent effect
[37] = system: HepG2; assay: Induction of cell cycle arrest in human HepG2 cells assessed as increase in G1 phase at 0.5 to 2 uM; assay type: functional, cell-based; settings: dose 0.5-2 µM
[38] = system: HepG2; assay: Induction of cell cycle arrest in human HepG2 cells assessed as decrease in cells at S phase at 0.5 to 2 uM; assay type: functional, cell-based; settings: dose 0.5-2 µM
[39] = system: HepG2; assay: Induction of cell cycle arrest in human HepG2 cells assessed as decrease in cells at G2 phase at 0.5 to 2 uM; assay type: functional, cell-based; settings: dose 0.5-2 µM
[40] = Inhibition of Cyclin D1 in human HepG2 cells assessed as reduction in CDK4 expression by Western blot analysis; settings: dose 0.5-2 µM, DDE = dose-dependent effect

For `C=C(C)[C@@H]1CC[C@]2(C(=O)OCCCCCn3cc(CCN)c4ccccc43)CC[C@]3(C)[C@H](C[C@H]4OC(=O)C[C@@H](O)[C@]5(C)[C@@H]4[C@@]3(C)CC[C@H]5C(=C)C)[C@@H]12`, which Activity [1] is on record?
Its Activity is “Dde”.

And the Activity [2]?
Its Activity is “Dde”.

And the IC50 [3]?
The IC50 was 5.34 µM.

And the IC50 [4]?
Its IC50 is 5.44 µM.

What about the IC50 [5] of the same compound?
Its IC50 is 0.97 µM.

And the IC50 [6]?
Its IC50 is 3.93 µM.

And the IC50 [7]?
The IC50 was 5.5 µM.

What about the Activity [8] of the same compound?
Its Activity is “Dde”.

What about the Activity [9] of the same compound?
Its Activity is “Dde”.

What about the Activity [10] of the same compound?
The Activity was “Active”.

What about the Activity [11] of the same compound?
The Activity was “Dde”.

What about the log2FC [12] of the same compound?
The log2FC was -0.29.

What about the log2FC [13] of the same compound?
Its log2FC is 0.83.

And the Activity [14]?
Its Activity is “Tde”.

And the Activity [15]?
The Activity was “Active”.

And the Activity [16]?
The Activity was 96.39%.

And the Activity [17]?
The Activity was “Dde”.

And the Activity [18]?
Its Activity is “Dde”.

And the Activity [19]?
Its Activity is “Dde”.

And the Activity [20]?
Its Activity is “Dde”.

And the Activity [21]?
The Activity was 30.38.

What about the Activity [22] of the same compound?
Its Activity is 14.11.

And the Activity [23]?
Its Activity is “Tde”.

And the Activity [24]?
The Activity was “Active”.

What about the inhibition [25] of the same compound?
The inhibition was “Dde”.

What about the inhibition [26] of the same compound?
Its inhibition is “Dde”.

What about the inhibition [27] of the same compound?
Its inhibition is “Dde”.

And the Activity [28]?
Its Activity is 10.55%.

What about the Activity [29] of the same compound?
The Activity was 20.15%.

And the Activity [30]?
The Activity was 221.77.

And the inhibition at 1.562 µM [31]?
The inhibition at 1.562 µM was 95.1%.

And the Activity [32]?
Its Activity is “Active”.

And the Activity [33]?
The Activity was “Dde”.

What about the Activity [34] of the same compound?
Its Activity is “Tde”.

And the Activity [35]?
The Activity was “Tde”.

And the Activity [36]?
The Activity was “Dde”.

What about the Activity [37] of the same compound?
Its Activity is “Active”.

And the Activity [38]?
The Activity was “Active”.

What about the Activity [39] of the same compound?
The Activity was “Active”.

And the inhibition [40]?
The inhibition was “Dde”.
